Measurements published in US20250222045A1, “BIFIDOBACTERIUM LONGUM SUBSP. INFANTIS, MICROBIAL AGENT AND USE THEREOF” (GUANGZHOU JIYAN COSMETICS TECHNOLOGY CO., LTD., priority 2024, published 2025).

Columns and labels:
suckling pig skin = assay: Exfoliation on excised suckling pig skin (Franz cell), total protein of detached keratinocytes; settings: 50 μL, 24 h, 32 °C
Protocol: <1> Formulation of cleaning solution (0.1% Triton X-100): 0.1 mL of Triton X-100 was weighed and dissolved in 100 mL of PBS to formulate 0.1% Triton X-100 solution. <2> Formulation of sodium hydroxide solution (12 M): 4.8 g of sodium hydroxide solid was weighed, and added with deionized water to make up to 10 mL, and formulate 12 M sodium hydroxide solution. <1> After being thawed and cleaned, pig skin was fixed between a supply chamber and a receiving chamber of Franz cell, with stratum corneum of the skin facing the supply chamber, and a dermal side facing the receiving chamber. Into the receiving chamber, 7.0 mL of a receiving liquid was added. After suckling pig skin was stretched and fixed well, into the receiving chamber, 1.5 mL of the receiving liquid (PBS) was added through a sample collector, and air was exhausted, so as to make the dermis of the skin be in close contact with the receiving liquid. <2> Samples (as shown in TABLE 24) were added to the skin surface in the supply chamber, where 50 μL of the samples were added to the surface of the pig skin (a PBS buffer solution was added to the surface of the control group as blank control). The samples were evenly spread radially from a central part of the skin towards an edge, and an exposed area of the samples was 3.14 cm^2. Each sample had three parallel replicates. […] Keratinocytes in the cleaning solution were precipitated, supernatant was discarded, and precipitate was re-suspended with 0.5 mL of deionized water. <2> Into the re-suspended liquid, 25 μL of a sodium hydroxide (12 M) solution was added, the keratinocytes were lysed for 30 min in a boiling water bath, and 25 μL of concentrated hydrochloric acid (12 M) was added to neutralize lysis solution. <3> The total protein content was detected according to instructions of a BCA protein assay kit. […] The total protein content in the lysis solution was directly proportional to the quantity of detached keratinocytes. […] GraphPad Prism was applied for plotting, and results were expressed as Mean±SD. Comparison between the groups was statistically analyzed using t-test. […]

[1] = system: 3D epidermal skin model (EpiKuits®); assay: Epidermal atrophy on UVB-irradiated 3D epidermal skin model, tissue morphology H&E, sunburn cells; format: cell-based; settings: EpiKutis 3D epidermal model, UVB 600 mJ/cm^2, then 24 h, H&E; BC 0, NC 10; WY14643 50 μM, Filtrate 5%, Lysate 5%, Filtrate + lysate 5%, Retinol 0.1%, Bifida ferment lysate 5%
Protocol: [table] <1> According to test groups, models were transferred into 6-well plates (added with 0.9 mL of an EpiGrowth culture solution of corresponding groups in advance), and numbers of the test groups were marked on the 6-well plates. <2> UVB irradiation (a radiation dosage was 600 mJ/cm^2) was performed on the groups requiring UVB irradiation according to the test groups (as shown in TABLE 40). […] <3> After incubation was finished, test substances remaining on surfaces of the models were cleaned with sterile PBS, and residual liquid inside and outside the models was wiped off with a sterile cotton swab. The models for detection of tissue morphology were fixed using 4% paraformaldehyde. After 24 h of fixation, H&E staining detection was performed, photographs were taken under a microscope and observed, and pictures were collected and analyzed. Inhibition rate/down-regulation rate (%)=(negative control group−sample)/negative control group×100% GraphPad Prism was applied for plotting, and results were expressed as Mean±SD. Comparison between the groups was statistically analyzed using t-test. Statistical analysis was two-tailed. P<0.05 is considered to have a significant difference, and P<0.01 is considered to have an extremely significant difference. (2) Epidermal atrophy: Tissue morphology is physiological structure analysis of appearance of tissues after HE staining. The ability of the test substance to resist UVB can be evaluated by analyzing thickness changes of epidermis and growth of four layers of cells on the surface after use of the test substance.

[2] = BC 0.326, Filtrate 3%, Mandelic acid 5%, Salicylic acid 2%

SMILES	Protein Concentration Mean (exfoliated keratinocytes) (suckling pig skin; [2]) [mg/mL]	Sunburn cells [1]	Protein Concentration Mean (exfoliated keratinocytes) (suckling pig skin; BC 0.326, PC 10% salicylic acid) [mg/mL]
O=C(O)C(O)c1ccccc1 (stereo not shown) [Mandelic acid]	0.448	–	–
Cc1cccc(Nc2cc(Cl)nc(SCC(=O)O)n2)c1C [WY14643]	–	3	–
O=C(O)c1ccccc1O [salicylic acid]	0.347	–	0.555
